Assay results taken from publication PMC12328261, “Modulating Antimicrobial Activity and Structure of the Peptide Esc(1‐21) via Site‐Specific Isopeptide Bond Formation” (Journal of Peptide Science, 2025).
*1 amine or outer side, *2 acyl side, *3 side chain or, on linkers, in order; H or OH if unused. Where a SMILES comes first, the peptide text is derived from it. Bridges are numbered along the chain shown (N, C = ends). Roman numbers before positions name the chains, in order. Where no end group is shown, it is not given here. Side-chain parts run from the residue outwards. [ ]: non-standard residue; d: D form. εLys = N[C@@H](CCCCN[*:1])C(=O)[*:2]

What was measured:
[1] = tested on: E. coli ATCC 25922; format: cell-based, Escherichia coli
Experimental: (§1) The antimicrobial activity of Esc(1‐21) analogs was assessed by determining the minimal inhibitory concentration (MIC) against a panel of representative Gram‐negative and Gram‐positive bacteria. […] The bacteria were then diluted in Mueller‐Hinton (MH) broth at a concentration of 2 × 10^6 colony‐forming units (CFU)/mL. Aliquots (50 μL) were added to 50 μL of MH containing serial two‐fold dilutions of the peptides, which had been previously prepared in the wells of a 96‐well plate, achieving a final cell concentration of 10^6 CFU/mL. […] To evaluate the antibiofilm activity of the tested peptides, bacteria were diluted to a cell density of 10^6 CFU/mL and aliquots of 100 μL were dispensed into the wells of a 96‐multiwell plate and incubated for 20 h at 37°C to allow biofilm formation. Planktonic cells were then removed, and each well was washed twice with 150 μL of phosphate buffered saline (PBS). Each well was filled with PBS supplemented with different 2‐fold serial dilutions of the tested peptides and the plate was incubated for 2 h at 37°C. After two washes with PBS, biofilm viability was assessed by adding 150 μL of MTT (0.5 mg/mL). The plate was incubated for 4 h at 37°C and the reaction was then stopped by adding SDS (final concentration equal to 5% v/v). The absorbance of each well was measured at 570 nm with a microplate reader (Infinite M200; Tecan, Salzburg, Austria), and the percentage of biofilm viability was calculated with respect to the untreated samples.

[2] = tested on: P. aeruginosa ATCC 27853; format: cell-based, Pseudomonas aeruginosa
Experimental: as §1

[3] = tested on: P. aeruginosa ATCC 15692; format: cell-based, Pseudomonas aeruginosa
Experimental: as §1

[4] = tested on: S. epidermidis ATCC 12228; format: cell-based, Staphylococcus epidermidis
Experimental: as §1

[5] = tested on: S. aureus ATCC 25923; format: cell-based, Staphylococcus aureus
Experimental: as §1

[6] = tested on: RBCs; design: method as in PMID 32722535; conditions: 64 µM; cited from earlier work

CC[C@H](C)[C@H](NC(=O)CN)C(=O)N[C@@H](Cc1ccccc1)C(=O)N[C@@H](CO)C(=O)N[C@@H](CCCCN)C(=O)N[C@@H](CC(C)C)C(=O)N[C@@H](C)C(=O)NCC(=O)N[C@@H](CCCCN)C(=O)NCCCC[C@H](N)C(=O)N[C@H](C(=O)N[C@@H](CCCCN)C(=O)N[C@@H](CC(N)=O)C(=O)N[C@@H](CC(C)C)C(=O)N[C@@H](CC(C)C)C(=O)N[C@H](C(=O)N[C@@H](CO)C(=O)NCC(=O)N[C@@H](CC(C)C)C(=O)N[C@@H](CCCCN)C(=O)NCC(N)=O)[C@@H](C)CC)[C@@H](C)CC [Esc(1‐21)ε10] (I: H-KIKNLLISGLKG-NH2 / II: H-GIFSKLAGK; amide I:1-II:C)
Antimicrobial activity (MIC) [1]: 6.25 µM
Antimicrobial activity (MIC) [2]: 12.5 µM
Antimicrobial activity (MIC) [3]: 6.25 µM
Antimicrobial activity (MIC) [4]: 25 µM
Antimicrobial activity (MIC) [5]: > 50 µM

CC[C@H](C)[C@H](NC(=O)CN)C(=O)N[C@@H](Cc1ccccc1)C(=O)N[C@@H](CO)C(=O)N[C@@H](CCCCN)C(=O)N[C@@H](CC(C)C)C(=O)N[C@@H](C)C(=O)NCC(=O)NCCCC[C@H](N)C(=O)N[C@@H](CCCCN)C(=O)N[C@H](C(=O)N[C@@H](CCCCN)C(=O)N[C@@H](CC(N)=O)C(=O)N[C@@H](CC(C)C)C(=O)N[C@@H](CC(C)C)C(=O)N[C@H](C(=O)N[C@@H](CO)C(=O)NCC(=O)N[C@@H](CC(C)C)C(=O)N[C@@H](CCCCN)C(=O)NCC(N)=O)[C@@H](C)CC)[C@@H](C)CC [Esc(1‐21)ε9] (I: H-KKIKNLLISGLKG-NH2 / II: H-GIFSKLAG; amide I:1-II:C)
Antimicrobial activity (MIC) [1]: 3.12 µM
Antimicrobial activity (MIC) [2]: 6.25 µM
Antimicrobial activity (MIC) [3]: 6.25 µM
Antimicrobial activity (MIC) [4]: 12.5 µM
Antimicrobial activity (MIC) [5]: > 50 µM

CC[C@H](C)[C@H](NC(=O)CN)C(=O)N[C@@H](Cc1ccccc1)C(=O)N[C@@H](CO)C(=O)N[C@@H](CCCCN)C(=O)N[C@@H](CC(C)C)C(=O)N[C@@H](C)C(=O)NCC(=O)N[C@@H](CCCCN)C(=O)N[C@@H](CCCCN)C(=O)N[C@H](C(=O)N[C@@H](CCCCN)C(=O)N[C@@H](CC(N)=O)C(=O)N[C@@H](CC(C)C)C(=O)N[C@@H](CC(C)C)C(=O)N[C@H](C(=O)N[C@@H](CO)C(=O)NCC(=O)N[C@@H](CC(C)C)C(=O)NCCCC[C@H](N)C(=O)NCC(N)=O)[C@@H](C)CC)[C@@H](C)CC [Esc(1‐21)ε20] (H-GIFSKLAGKKIKNLLISGL[εLys]G-NH2)
Antimicrobial activity (MIC) [1]: 1.56 µM
Antimicrobial activity (MIC) [2]: 1.56 µM
Antimicrobial activity (MIC) [3]: 1.56 µM
Antimicrobial activity (MIC) [4]: 3.12 µM
Antimicrobial activity (MIC) [5]: > 50 µM

CC[C@H](C)[C@H](NC(=O)CN)C(=O)N[C@@H](Cc1ccccc1)C(=O)N[C@@H](CO)C(=O)N[C@@H](CCCCN)C(=O)N[C@@H](CC(C)C)C(=O)N[C@@H](C)C(=O)NCC(=O)N[C@@H](CCCCN)C(=O)N[C@@H](CCCCN)C(=O)N[C@H](C(=O)NCCCC[C@H](N)C(=O)N[C@@H](CC(N)=O)C(=O)N[C@@H](CC(C)C)C(=O)N[C@@H](CC(C)C)C(=O)N[C@H](C(=O)N[C@@H](CO)C(=O)NCC(=O)N[C@@H](CC(C)C)C(=O)N[C@@H](CCCCN)C(=O)NCC(N)=O)[C@@H](C)CC)[C@@H](C)CC [Esc(1‐21)ε12] (H-GIFSKLAGKKI[εLys]NLLISGLKG-NH2)
Antimicrobial activity (MIC) [1]: 25 µM
Antimicrobial activity (MIC) [2]: 25 µM
Antimicrobial activity (MIC) [3]: 25 µM
Antimicrobial activity (MIC) [4]: > 50 µM
Antimicrobial activity (MIC) [5]: > 50 µM

CC[C@H](C)[C@H](NC(=O)CN)C(=O)N[C@@H](Cc1ccccc1)C(=O)N[C@@H](CO)C(=O)NCCCC[C@H](N)C(=O)N[C@@H](CC(C)C)C(=O)N[C@@H](C)C(=O)NCC(=O)N[C@@H](CCCCN)C(=O)N[C@@H](CCCCN)C(=O)N[C@H](C(=O)N[C@@H](CCCCN)C(=O)N[C@@H](CC(N)=O)C(=O)N[C@@H](CC(C)C)C(=O)N[C@@H](CC(C)C)C(=O)N[C@H](C(=O)N[C@@H](CO)C(=O)NCC(=O)N[C@@H](CC(C)C)C(=O)N[C@@H](CCCCN)C(=O)NCC(N)=O)[C@@H](C)CC)[C@@H](C)CC [Esc(1‐21)ε5] (H-K([Ser-Phe-Ile-Gly])LAGKKIKNLLISGLKG-NH2)
Antimicrobial activity (MIC) [1]: 3.12 µM
Antimicrobial activity (MIC) [2]: 12.5 µM
Antimicrobial activity (MIC) [3]: 6.25 µM
Antimicrobial activity (MIC) [4]: 25 µM
Antimicrobial activity (MIC) [5]: > 50 µM

GIFSKLAGKKIKNLLISGLKG-NH2 [Esc(1‐21), Esculentin‐1a(1‐21)NH2]
Hemolysis [6]: 10-15%
